Patent US7226754B2, “Kinase Wee1 fusion protein compositions, nucleotide sequences, expression systems, and methods of use” (The Scripps Research Institute, priority 1998, dated 2007)

Assays:
[1] = tested on: Schizosaccharomyces pombe; experiment: Replication checkpoint: progression through mitosis of synchronous cultures in the presence of HU; assay type: cell-based; conditions: 12 mM HU
Experimental: FIGS. 5A–5B are graphs which illustrate that replication checkpoint is abolished in Cds1 chk1 cells as described in Example 2. […] Progression through mitosis in the presence of 12 mM HU was monitored by scoring binucleate or septated cells. The cds1 chk1 double mutant and rad3 cells underwent mitosis in the presence of HU, whereas division was arrested in control strains (wild-type, Cds1 and chk1 single mutants).
(§1) The cell lysates were obtained from a variety of strains of S. pombe cells having the following genotypes: PR109, wild-type; NB2117, cds1::ura4+; NB2118, cds1:2HA6His:ura4+; NR1826, rad3::ura4+; OM591, cdc22-M45; NR1593, rad1::ura4+; NR1592,chk1::ura4+; BF1758, nmt1:GST:chk1:leu1+; BF1916, nmt1:GST:cds1:leu1+; OM2173, mik1:2HA6His:ura4+; OM2183, mik1:2HA6His:ura4+cds1::ura4+; PR712, mik1::ura4+; and BF2115, cds1::ura4+chk1::ura4+. All strains were leu1-32 ura4-D18. All nmt1 promoter constructs were integrated at the leu1-32 locus. Growth media and general methods for S. pombe have been described [Moreno et al, Meth. Enzymol., 194:795 (1991)]. Unless otherwise indicated, yeast cultures were grown in YES medium at 30 C. […]
Cells were first grown in YES (yeast extract and glucose) medium to an OD600 of 1.0 and then treated with HU (12 mM) for 90 min at 30 C. […] Cells were scored for progression through mitosis by microscopic observation. […]

[2] = tested on: Schizosaccharomyces pombe; experiment: HU sensitivity (survival) of S. pombe strains; assay type: cell-based; conditions: for sensitivity to killing by HU: 12 mM HU
Experimental: FIG. 3D is a photograph of cell cultures which illustrates that Mikl is important for survival of HU treatment. Serial dilutions or wild-type and mik1 cells were plated in YES medium supplemented with 0 or 6 mM HU and incubated for 2 days at 30° C.
Cells were first grown in YES (yeast extract and glucose) medium to an OD600 of 1.0 and then treated with HU (12 mM) for 90 min at 30 C. Synchronous cells were then obtained by centrifugal elutriation with a Beckman JE-5.0 elutriation rotor. These cells were diluted to an OD600 of 0.3 in YES containing 12 mM HU and grown at 30 C. for a further 4 hr. Cells were scored for progression through mitosis by microscopic observation. HU sensitivity studies were carried out with cells grown to an OD600 of 0.3 in YES medium and then diluted to 13,000 cells/ml in YES media containing HU (12 mM), followed by growth at 30 C. for a further 8 hr. Samples (75 μl) were taken at regular intervals, plated onto YES plates and grown for 4 days at 30 C. to determine survival.

GST:Wee1 = GST:Wee1 phosphorylation by associated kinase from lysates of HU-treated cells; assay type: cell-based, Schizosaccharomyces pombe; conditions: lysates of cells treated with 12 mM HU, 1 hr time course at 30° C.
Experimental: FIG. 1B is a photograph of an analysis of proteins from cells that were treated with 12 mM HU for a 1 hr time course at 30° C. Cell lysates were incubated with GST:Wee1 proteins bound to GSH-Sepharose. The GSH-Sepharose was washed and assayed for associated kinase activity. The positions of GST:Wee1^152 and GST:Wee1^70 following 12% SDS-polyacrylamide gel electrophoresis are shown.
The GST:Wee1^152 and GST:Wee1^70 proteins prepared in Example 1 were used to study yeast cellular functions. To that end, the isolated proteins were bound to glutathione (GSH)-Sepharose and mixed with cell lysates from the fission yeast Schizosaccharomyces pombe (S. pombe) harvested at intervals during incubation with hydroxyurea (HU).
as §1, with “locus.” for “locus. Growth media and general methods for S. pombe have been described [Moreno et al, Meth. Enzymol., 194:795 (1991)]. Unless otherwise indicated, yeast cultures were grown in YES medium at 30 C.”
The proteins bound to GSH-Sepharose were washed, incubated with [gamma-^32P]ATP and analyzed by SDS-polyacrylamide gel electrophoresis (FIG. 1B). […]

Cds1 [3] = experiment: Binding of Cds1HAHIS from cell lysates to GST:Wee1 (immunoblot); assay type: cell-based, Schizosaccharomyces pombe; conditions: lysates of Cds1HAHIS cells treated 3.5 hr with HU vs mock-treated
Description: FIGS. 3A–3D illustrate that HU stimulates Cds1 kinase activity, binding of Cds1 to GST:Wee1^70 in lysates and accumulation of Mik1 as described in Example 2. FIG. 3A is a photograph of an analysis of proteins which illustrates that HU stimulates Cds1 binding to GST:Wee1^70. A culture of cells expressing Cds1^HAHIS from the cds1 genomic locus was split and treated for 3.5 hr with HU or mock-treated. The cultures were split again and samples processed for Ni^2+-NTA purification of Cds1^HAHIS in denaturing conditions or purification of proteins that bind GST:Wee1 proteins in nondenaturing conditions. After extensive washing, samples were resolved by 10% SDS-polyacrylamide gel electrophoresis and subjected to immunoblot analysis.
HU may increase the abundance of Cds1, or it may make Cds1 competent to associate with Wee1, or perhaps the replication checkpoint enhances the kinase activity of Cds1. Cells expressing Cds1^HAHIS were treated with HU or mock-treated; lysates were made and precipitated with GST:Wee1 proteins. Association of Cds1^HAHIS with GST:Wee1 was detected in lysates from cells treated with HU, whereas no Cds1^HAHIS associated with GST:Wee1 in mock-treated samples (FIG. 3A).

Cds1 [4] = experiment: Cds1HAHIS autophosphorylation assay after HU treatment of cells; assay type: cell-based, Schizosaccharomyces pombe; conditions: Cds1HAHIS purified from HU or mock-treated cells
Description: FIG. 3B is a photograph of an analysis of proteins which illustrates that HU activates Cds1 kinase activity. In a separate experiment Cds1^HAHIS was purified in native conditions and assayed for autophosphorylation activity (upper panel). Immunoblot analysis confirmed that similar amounts of Cds1HAHIS were recovered in the HU and mock-treated samples (lower panel).
Cds1^HAHIS was also purified from HU or mock-treated cells and assayed in an autophosphorylation assay. Phosphorylation of Cds1 was increased in samples from cells treated HU (FIG. 3B). Similar results were obtained using GST:Wee1^70 as a substrate. Thus HU apparently both activates Cds1 as a kinase and stimulates binding to Wee1.

Mik1 = experiment: Mik1HAHIS abundance in HU-treated cells (immunoblot); assay type: cell-based, Schizosaccharomyces pombe; conditions: cells treated 4 hrs with 12 mM HU vs mock-treated
Experimental: FIG. 3C is a photograph of an analysis of proteins which illustrates that Cds1 and Rad3-dependent increase in Mik1 abundance in HU-treated cells. Wild-type, Cds1 and rad3 cells in which genomic mik1 encoded Mik1^HAHIS protein were incubated for 4 hrs in YES at 25° C. with 12 mM HU or mock-treated. Mik1HARIS protein was purified by Ni^2+-NTA purification in denaturing conditions and detected by immunoblotting with antibodies to HA.
Phosphorylation of Wee1 by Cds1 may play a role in the DNA replication checkpoint. However, wee1 mutants arrest division in response to HU (Enoch et al, Cell, 60:665, 1990), thus another protein that controls Cdc2 Tyr^15 phosphorylation must also be regulated by the replication checkpoint. The kinase Mik1 phosphorylates Cdc2 on Tyr^15 (Lundgren et al, Cell, 64:1111, 1991), therefore the abundance of Mik1 was monitored in HU-treated cells using a strain expressing Mik1^HAHIS from the genomic locus. […] The abundance of mik1 mRNA was unchanged in HU-treated cells, thus HU must influence Mik1 synthesis or turnover. […] Mik1 is a dose-dependent inhibitor of mitosis (Lundgren et al, Cell, 64:1111, 1991), thus the increase of Mik1 abundance in HU-treated cells should help to enforce the checkpoint.

SMILES: NC(=O)NO [HU, hydroxyurea]
- cell division in the presence of HU ([1]; Cds1 chk1 double mutant cells): underwent division
- cell division in the presence of HU ([1]; wild-type cells, Cds1 and chk1 single mutants): arrested division
- sensitivity to killing by HU ([2]; Cds1 cells): moderately sensitive
- sensitivity to killing by HU ([2]; Cds1 chk1 double mutant cells): acutely sensitive to killing
- sensitivity to HU ([2]; mik1 mutants, YES medium with 0 or 6 mM HU, 2 days at 30° C.): enhanced sensitivity
- sensitivity to killing by HU ([2]; wild-type and chk1 cells): not sensitive
- phosphorylation of GST:Wee1^152 and GST:Wee1^70 (GST:Wee1): increased
- association of Cds1 with GST:Wee1 (Cds1 [3]): enhanced association
- phosphorylation of Cds1 (autophosphorylation) (Cds1 [4]): increased
- amount of Mik1HAHIS (Mik1): increased
